{
  "source": "patent USRE46907E1",
  "about": "“Suppression of cancer growth and metastasis using nordihydroguaiaretic acid derivatives with metabolic modulators” (THE JOHNS HOPKINS UNIVERSITY, priority 2008, dated 2018)",
  "key": {"4T1 cells": {"tested_on": "4T1 cells", "test": "TUNEL apoptosis assay in 4T1 cells", "assay_type": "cell-based, mouse", "details": "4T1, 48 hr after treatment, M4N 80 μM", "protocol": "Cell Culture Either cell line 4T1 or 67NR was a gift from Dr. Miller (20). The cells were cultured in RPMI1640 medium supplemented with glucose (14 mM), pyruvate (1 mM), penicillin (100 units/ml), streptomycin (100 μg/ml), and fetal bovine serum (10%), buffered with 25 mM HEPES (pH 7.4). LNCaP human prostate cancer cell line was purchased from American Type Culture Collection (Manassas, Va.). The cell line was cultured in RPMI1640 medium supplemented with glucose (14 mM), pyruvate (1 mM), penicillin (100 units/ml), streptomycin (100 μg/ml), and fetal bovine serum (10%). Drugs were dissolved in dimethyl sulfoxide (DMSO) at a suitable concentration so that the final concentration of DMSO in the medium was less than 0.1%.\nApoptosis assay: Simple TLTNEL assay was conducted by using TUNEL apoptosis detection kit (Upstate, Temecula, Calif.) with some modification. For the evaluation of the effect of PKCδ wild type and dominant negative vectors on TUNEL-positive cell death, we first transfected 4T1 or 67NR cells with these vectors by effectene (Qiagen, Valencia, Calif.). Wild type PKCδ vector is constructed from wild type PKCδ gene and pEGFP (Promega, Madison, Wis.). Dominant negative PKCδ vector is constructed from PKCδ gene mutated at a 376th amino acid residue (threonine) and pEGFP (Promega, Madison, Wis.) This threonine residue is located in ATP-binding domain of protein kinase Cδ, and therefore essential for any kinase reaction of the protein so that this mutant protein supposedly function as dominant negative. As a control we used pEGFP-N3 vector was used. These vectors contain green fluorescent protein (GFP) gene to be used as a transfection marker. The vectors are kind gifts from Dr. Yuspa (National Institutes of Health, Bethesda, Md.) (88). Twenty four hours after transfection, the cells were treated with M4N, Rottlerin, or Ly294002. Then 24 hrs after this treatment with these reagents, the cells were fixed with 10% formaldehyde in phosphate buffered saline without calcium and magnesium (PBS (−)). The cells were then incubated with rabbit anti-GFP antibody (MBL International, Woburn, Mass.) followed by treatment with anti-rabbit IgG antibody conjugated with fluorescein (Promega, Madison, Wis.). TUNEL staining was conducted by using TUNEL apoptosis detection kit (Upstate, Temecula, Calif.) except for using Streptavidin-Alexa Fluor 568 (Molecular Probes, Eugene, Oreg.) instead of Avidine-Rhodamine contained in the kit. Cell death was evaluated by dividing the number of TUNEL-positive cells among the cells positive with anti-GFP staining by the number of these GFP-positive cells."}, "caspase-9": {"tested_on": "caspase-9", "test": "Western blotting of caspase-9 cleavage in 67NR cells", "assay_type": "cell-based, mouse", "details": "5 hrs, Rottlerin 5 μM, M4N 80 μM", "protocol": "(§1) Western blotting: After cells had been grown in 25 mm^2 flasks and treated with reagents, the cells were washed with PBS (−) three times and suspended in RIP A buffer (150 mM NaCl, 50 mM Tris-HCl (pH 8,0), 0.1% SDS, 1% NP40, and 0.5% deoxycholate) supplemented with protease inhibitor cocktail (Calbiochem, San Diego, Calif.). The sample volumes were adjusted by the total protein amount. Protein assay was performed by Bio-Rad Protein Assay (Bio-Rad Laboratories, Inc. Hercules, Calif.). The samples were resolved by the standard SDS-polyacrylamide gel electrophoresis and transferred to nitrocellulose membrane (Amersham Biosciences, Bjorkgatan, Sweden). The membranes were blocked with skim milk, and incubated with primary antibodies at 4° C. overnight and then with secondary antibody conjugated with horse radish peroxidase at room temperature for 2 hrs. The signals were detected by western blot chemiluminescence reagent plus (New England Nuclear Life Science Products, Boston, Mass.)."}, "PKCδ [1]": {"tested_on": "PKCδ", "test": "Western blotting of total PKCδ and phosphor-PKCδ (Thr505) in 67NR cells", "assay_type": "cell-based, mouse", "details": "5 hrs, M4N 80 μM, Ro 5 μM, Ly 20 μM, Des 150 μM", "protocol": "as §1, with “The” for “Western blotting: After cells had been grown in 25 mm^2 flasks and treated with reagents, the cells were washed with PBS (−) three times and suspended in RIP A buffer (150 mM NaCl, 50 mM Tris-HCl (pH 8,0), 0.1% SDS, 1% NP40, and 0.5% deoxycholate) supplemented with protease inhibitor cocktail (Calbiochem, San Diego, Calif.). The”"}, "PKCδ [2]": {"tested_on": "PKCδ", "test": "Immunocytochemistry of PKCδ cellular localization in 4T1 cells", "assay_type": "cell-based, mouse", "details": "4T1, 5 hrs", "protocol": "Immunocytocheimstry: Cells were cultured on glass cover slips coated with poly-L-ornithine (Sigma, Saint Louis, Mo.). At 5 hrs after treatment with drugs, the cells were fixed with 10% formaldehyde in diluted in PBS (−) and washed with PBS (−) three times. After permeabilized by 0.2% Tryton X-100 and 1% goat serum diluted in PBS (−), the cells were blocked by PBS (−) containing 5% goat serum. The cells were then incubated with primary antibodies diluted in PBS (−) containing 0.5% bovine serum albumin (BSA), and with secondary antibodies, which is either anti-IgG conjugated with fluorescein (Vector Laboratories. Burlingame, Calif.), diluted in PBS (−) containing 0.5% BSA. The cells were observed through Zeiss fluorescent microscope (Carl Zeiss, Thornwood, N.Y.)."}, "67NR cells": {"tested_on": "67NR cells", "test": "67NR tumor-bearing Balb/c mice (life-span)", "assay_type": "in vivo, mouse", "details": "5×10^4 cells, M4N 1 mg/shot, Rottlerin 100 μg/shot, three days a week from day 8", "protocol": "Animals: Female Balb/e mice were obtained from Charles River Laboratories (Wilmington, Mass.). M4N and Rottlerin were dissolved into a solvent, CPE (25/30) solvent system supplied by Erimos Pharmaceutical, L.L.C. (Raleigh, N.C.) and injected into mice either intravenously or intraperitoneally, T-cell deficient male nude mice (nu/nu) were obtained from Charles River Laboratories (Wilmington, Mass.). M4N and Ly294002 were dissolved into a solvent, CPE (25/30) solvent system supplied by Erimos Pharmaceutical, L.L.C. (Raleigh, N.C.) and injected into mice intravenously.\nTumor inoculation: Either 4T1 or 67NR cells were grown as described above. Cells growing subconfluently were collected and resuspended into the tissue culture medium minus fetal bovine serum and antibiotics, After counting the number of the cells, the cell concentration was adjusted. Twenty μl of the solution containing a selected number of cancer cells (either 5×10^3 or 5×10^4 cells) was injected into each fat pad of a pair of mammary glands located close to lower limbs. Tumor size was measured by weighing tumors extracted from mouse cadavers."}, "LNCaP tumors": {"tested_on": "LNCaP tumors", "test": "Nude mice orthotropically implanted with LNCaP tumors, about eight times tumor volume, treatment from day 3", "assay_type": "in vivo, mouse", "method": "Surgical orthotropic implantation of LNCaP tumors: LNCaP cells were grown as described above. Cells growing subconfluently were collected and resuspended into the tissue culture medium without fetal bovine serum and antibiotics. After counting the number of the cells, the cell concentration was adjusted using the same medium. After 20 μl of the medium containing a selected number of cancer cells (about 5×10^7 cells) had been mixed together with the same volume of Matrigel (BD science, Bedford, Mass.), the combined solution was injected into the skin of nude mice. […] The tumor tissue extracted from the skin was excised into pieces of about 2 mm diameter. After nude mice were anesthetized by 2,2,2-Tribromoethanol (Aldrich Chemical Co. Inc., Milwaukee, Wis.), a small incision was made at the abdomen of each mouse and a tumor tissue piece was implanted in the neighbor of the prostate of each mouse. Eight days after the operation, the injection of drugs was initiated, and the drugs were injected intravenously every day for the indicated periods\nAs in the previous experiment (FIGS. 9 to 13), in this study we administered M4N, Ly, Ro, Etoposide, or Rapamycin to mice intravenously using CPE (25/30) solvent system (87). […] However, in this experiment we implanted about eight times the volume of tumors as in the previous experiments to detect the difference of efficacy of various combination treatments much faster. We started to treat the mice with combination treatments three days after the implantation instead of eight days, considering that the tumor volume is already large at the time of implantation in this experiment. This allows less time for possible metastasis to the transplanted tumors in this experiment than in the previous one."}, "HIF": {"tested_on": "HIF", "test": "Western blotting of HIF in 67NR cells", "assay_type": "cell-based, mouse", "details": "M4N 80 μM", "protocol": "as §1"}},
  "data": [
    {"smiles": "COc1ccc(C[C@@H](C)[C@@H](C)Cc2ccc(OC)c(OC)c2)cc1OC", "note": "[M4N, tetra-O-methyl nordihydroguaiaretic acid]", "values": [
      {"measurement": "TUNEL-positive cell death", "setting": "4T1 cells", "result": "did not detect many TUNEL-positive cells"},
      {"measurement": "caspase-9 activation (cleavage)", "setting": "caspase-9", "result": "slightly further augmented"},
      {"measurement": "amount of phosphorylated PKCδ at Thr505", "setting": "PKCδ [1]", "result": "induced phosphorylation"},
      {"measurement": "cellular distribution / nuclear staining of total PKCδ", "setting": "PKCδ [2]", "result": "did not change much"},
      {"measurement": "nuclear staining for phosphor-PKCδ (Thr505) in the presence of Des", "setting": "PKCδ [2]; with Desferoxamine 150 μM", "result": "markedly augmented nuclear staining"},
      {"measurement": "nuclear staining for phosphor-PKCδ (Thr505)", "setting": "PKCδ [2]; without Desferoxamine co-treatment", "result": "augmented staining"},
      {"measurement": "life-span of 67NR-bearing mice", "setting": "67NR cells", "result": "didn't have much effect on the life-span"},
      {"measurement": "mice with lung metastasis lesions", "setting": "LNCaP tumors; combination groups at 80 days after tumor implantation", "result": "2 out of 4"},
      {"measurement": "time after implantation by which all mice died", "setting": "LNCaP tumors; mouse, in vivo", "result": "≤ 33", "unit": "days"},
      {"measurement": "effect on Desferoxamine-mediated HIF induction", "setting": "HIF", "result": "instead enhanced"}
    ]}
  ]
}
